Where a name gives a salt, the structure may show the parent alone.
Tests used:
human KCNK9/TASK-3 = molecular target: T1, human KCNK9/TASK-3 (Homo sapiens, UniProt Q9NPC2); test: Thallium flux through human TASK-3 (KCNK9-HEK cells); type: cell-based; details: Tl+ flux; 3 nM to 30 μM; read-out: hTASK-3 IC50
T1 construct: expressed in transfected cells; host or cells: HEK cells (tetracycline-inducible)
Protocol: (§1) CHO cells expressing recombinant tetracycline-inducible rat KCNK3/TASK-1 (KCNK3-CHO cells) were plated in poly-D-lysine coated 384-well plates at a density of 6,000 cells/well (50 μl/well of 120,000 cells/mL) and allowed to incubate for 72 hrs in the presence of 5% CO2 and 1 μg/mL tetracycline at 30° C. HEK cells expressing recombinant tetracycline-inducible human KCNK9/TASK-3 (KCNK9-HEK cells) were plated at a density of 15,000 cells per well (50 μl/well, 300,000 cells/mL) and incubated overnight at 37° C. and 5% CO2 in the presence of 1 μg/mL tetracycline.
(§2) Drug plates were generated from 10 mM 100% DMSO mother plates. Compounds were transferred to 384-well drug plates and titrated with sequential 1:3 dilutions in 100% DMSO for a total of 9 dilutions. A dilution plate is made by taking 2.4 μl from the mother plate and adding to […] of assay buffer for a 12% DMSO dilution plate. From this dilution plate, a final daughter plate is generated by taking 1 μA of the dilution plate and adding to 40 μA of assay buffer for a final DMSO concentration of 0.3%. Each compound was evaluated in duplicate and the concentration range evaluated was 3 nM to 30 μM.
(§3) When thallium was added to extracellular solution with a stimulus to open channels, Tl^+ flowed down its concentration gradient into the cells and channel activity was detected with an indicator dye, FluxOR™, that increased in cytosolic fluorescence. The FluxOR™ indicator dye was loaded into cells as a membrane permeable acetoxymethyl ester. On the day of each assay, FluxOR™ assay buffer was made fresh from Hank's Balanced Saline Solution (HBSS) buffered with 20 mM HEPES and pH adjusted to 7.4 with NaOH. Dye loading solution was prepared per manufacturer's instructions, and 25 μl of dye solution applied to each well with a multidropper after plating medium was removed manually from cells. Dye was allowed to load for 90 minutes at room temperature in the dark.
(§4) After the 90 min dye loading incubation and subsequent manual dye removal, 24 μl of the drug daughter plate was transfer to cell plates by a cybi-well system and then incubated at room temperature for 20 minutes to allow for equilibration within wells. Stimulation buffer was prepared from 5× chloride-free buffer, thallium, and potassium sulfate containing 5 times the desired final assay concentration of 10 mM K^+ 2.8 mM Tl^+. Cell plates were then transferred to an FDSS 6000 kinetic imaging plate reader (Hamamatsu). Fluorescence at 525 nm (excitation 488 nm) was measured for 10 seconds at 1 Hz to establish baseline for the entire plate. After baseline was established, 6 μl/well of stimulation buffer was added and fluorescence signal recorded for another 140 seconds.
(§5) From the fluorescence signals in the absence and presence of Galleon compounds, Inhibitory concentration curves were plotted and IC50 values were estimated using a curve fitting algorithm.

rat KCNK3/TASK-1 = molecular target: T2, rat KCNK3/TASK-1 (Rattus norvegicus, UniProt O54912); test: Thallium flux through rat TASK-1 (KCNK3-CHO cells); type: cell-based; details: Tl+ flux; 3 nM to 30 μM; read-out: rTASK-1 IC50
T2 construct: expressed in transfected cells; host or cells: CHO cells (tetracycline-inducible)
T2 sequence (O54912 whole entry): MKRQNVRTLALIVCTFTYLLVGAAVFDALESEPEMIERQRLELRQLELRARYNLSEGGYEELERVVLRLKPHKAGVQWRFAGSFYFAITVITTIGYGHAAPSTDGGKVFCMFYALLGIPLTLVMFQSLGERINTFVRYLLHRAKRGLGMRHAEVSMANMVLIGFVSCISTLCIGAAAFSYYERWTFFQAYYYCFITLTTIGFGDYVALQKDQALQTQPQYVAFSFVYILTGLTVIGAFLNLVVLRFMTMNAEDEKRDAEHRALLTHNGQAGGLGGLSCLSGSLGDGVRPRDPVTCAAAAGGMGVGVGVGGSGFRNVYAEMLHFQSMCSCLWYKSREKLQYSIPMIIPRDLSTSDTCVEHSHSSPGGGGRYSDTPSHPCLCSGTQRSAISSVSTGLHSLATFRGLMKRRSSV
Protocol: as §1, §2, §3, §4, §5

[1] = tested on: spontaneously breathing rats; test: Minute ventilation (MV) and cardiovascular parameters in naive rats; type: in vivo, rat; parameters: unit not given here
Protocol: (§6) All surgical procedures were performed under anesthesia induced by 2% isoflurane in compressed medical grade air. With rats in supine position, the right femoral vein was catheterized using polyethylene tubing (PE-50). This catheter was used for fluid and drug administration. Simultaneously, the right femoral artery was also catheterized for monitoring blood pressure and heart rate. In order to measure the respiratory parameters in spontaneously breathing rats, trachea was intubated using 13 gauge tracheal tube (2.5 mm ID, Instech Solomon, Pa.).
After establishing a stable base-line at 1.5% isoflurane, compounds (typically at a dose of 1 mpk) were administered IV, and ventilatory parameters were generated from spontaneously breathing rats, along with cardiovascular output (mean arterial pressure (MAP) and heart rate). Maximum peak minute ventilatory (MV) responses (MPR), along with changes in minute ventilation versus baseline (AMV) were obtained as shown in the tables below.

[2] = tested on: spontaneously breathing rats; test: Respiratory rate, tidal volume and minute volume in urethane-anesthetized rat; type: in vivo; details: IV; compared to vehicle
Protocol: Adult male Sprague Dawley rats (250-350 g body weight; Harlan, Indianapolis, Ind., USA) were anesthetized with isoflurane in oxygen. The femoral vein was cannulated to administer compounds. Body temperature was maintained between 36.0 and 37.2° C. throughout the experiment. The cervical portion of the trachea was cannulated and attached to a rat-sized pneumotachometer for measuring tracheal airflow. After surgical instrumentation was complete, isoflurane was slowly discontinued, while urethane (1.8 g/kg) was administered intravenously over 10-15 minutes to maintain anesthesia. Rats were permitted to breathe spontaneously and inspire 100% oxygen. At least 30-45 minutes after discontinuing isoflurane, baseline tracheal airflow was recorded for 20-30 minutes prior to compound administration. Vehicle and test compound were administered intravenously over 15-25 seconds and at a constant volume (1 mL/kg). At least 15-min elapsed between each dose of compound administered. Tracheal airflow was recorded continuously before, during and after compound administration. Tidal volume was derived from the integral of airflow, and respiratory rate was derived from the number of inspiratory cycles per minute. Minute volume was calculated as the product of tidal volume and respiratory rate (FIG. 32).

[3] = Solubility of process impurity (observation); type: physicochemical
Text: Under certain conditions where the compounds of the present invention and their synthetic intermediates are exposed to acidic or alkaline aqueous environments, the bond between the aromatic heterocycle and the ring substituents may be susceptible to hydrolytic cleavage. For example, in the intermediates to compounds of formula (II-a), a halo substituent in the 2 position (Schemes 3 and 4) may be hydrolytically replaced with a hydroxyl group to yield N-(4,6-Bis(n-propylamino)-1,3,5-triazin-2-ol (CLXXVIII). Similarly, the amine substituents of compounds of formula (II-a) may be displaced by a hydroxyl group. Without wishing to be bound by theory, a series of chemical changes may occur to enable this substitution, such as a prior oxidation of the appended amine side chain, with hydrolytic replacement by hydroxyl as the final transformation. As a specific non-limiting example, the N,O-dimethylhydroxylamino substituent of N-(4,6-Bis-n-propylamino-[1,3,5]triazin-2-yl)-N,O-dimethyl-hydroxylamine (XXXV) may be partially displaced by hydroxyl during processing in the presence of water, forming (CLXXVIII) as a process impurity. […] It was unexpectedly observed that even at elevated temperatures (CLXXVIII) is very insoluble relative to the active ingredient. Thus, trace quantities of this compound in the API can be problematic in liquid formulations. […]

[4] = tested on: morphine-induced respiratory depression; test: Effects of morphine and compound on arterial blood gases in the rat; type: in vivo; details: opioid-treated rat
Protocol: Rats with pre-cannulated jugular vein and femoral arterial catheters (for administering drugs and obtaining blood samples respectively) were obtained from Harlan laboratories and kept at the animal facility at Galleon Pharmaceuticals until the experimental procedures. Each animal was dosed with morphine sulfate (10 mg/kg), dissolved in saline at a concentration of 10 mg/mL, via injection into the jugular vein over a period of 20 seconds with a 20 second flush of 0.9% NaCl saline. Prior to morphine administration, two 250 μL samples of arterial blood were aspirated from the femoral artery into a pre-heparinized syringe. The samples were analyzed on Radiometer's ABL Flex 800, where pO2, pCO2, pH, SaO2 and other parameters were recorded. Aspirated volumes of arterial blood were replaced by room temperature sterile saline (˜300 μL) slowly flushed back into the femoral arterial catheter of the rodent to prevent hypovolemia. Morphine was then administered and 2 minutes later another blood sample was taken.
The infusion started at t=15 minutes and ended at t=35 minutes. Arterial blood gas analysis occurred at time points t=12, 18, 25, 35, 40, 45, and 50 minutes.

[5] = tested on: morphine-induced respiratory depression; test: Opioid-induced respiratory depression in the rat, plethysmography (minute ventilation); type: in vivo; details: opioid-treated rat; plethysmography; FIG. 9
Protocol: Rats with pre-cannulated jugular vein (for administering drugs) were acclimated to plethysmography chambers for a minimum of 60 minutes, or until animals were no longer restless. Each animal was dosed with morphine sulfate (10 mg/kg), dissolved in sterile water at a concentration of 10 mg/mL (supplied by Baxter Healthcare Corporation), via injection into the jugular vein catheter over a period of 5-10 seconds.
Compound (XXXVI) was dissolved in 20% hydroxypropyl β-cyclodextran (20% bcd on graph) at a concentration of 0.45 mg/mL at pH 5. After a period of 5 min, compound (XXXVI), labeled as cmpd (A), was administered via infusion into the jugular vein at a dose of 0.10 mg/kg/min for 20 min and then at a dose of […] for 20 min (e.g., 20 μL/min/0.3 kg rat to yield […]).
After 20 minutes of infusion at this dose, the infusion pumps were turned off, and all animals were given a 20 minute recovery period, followed by a post-study analysis of rat health and behavior. […] Results are illustrated in FIG. 1.

[6] = tested on: spontaneously breathing rats; test: Dose-dependent effect on minute ventilation (MV) in naive rats; type: in vivo, rat; details: 1.5% isoflurane; for minute ventilation, dose dependence: cumulative IV doses
Protocol: as §6, with “pressure.” for “pressure and heart rate.”
After establishing a stable base-line at 1.5% isoflurane, cumulative dose-dependent (0.01, 0.03, 0.1, 0.3, 1, 3, 10 mg/kg) ventilatory responses to compounds (XXXVI) and (L), labeled as cmpd (A) and cmpd (B) respectively, were generated from spontaneously breathing rats. Maximum peak minute ventilatory (MV) values at each dose of corresponding drug were calculated and used for generating ED50 values.

[7] = Table 8, 1 mpk, 20% HPβCD, pH 4

T1 sequence (Q9NPC2 whole entry): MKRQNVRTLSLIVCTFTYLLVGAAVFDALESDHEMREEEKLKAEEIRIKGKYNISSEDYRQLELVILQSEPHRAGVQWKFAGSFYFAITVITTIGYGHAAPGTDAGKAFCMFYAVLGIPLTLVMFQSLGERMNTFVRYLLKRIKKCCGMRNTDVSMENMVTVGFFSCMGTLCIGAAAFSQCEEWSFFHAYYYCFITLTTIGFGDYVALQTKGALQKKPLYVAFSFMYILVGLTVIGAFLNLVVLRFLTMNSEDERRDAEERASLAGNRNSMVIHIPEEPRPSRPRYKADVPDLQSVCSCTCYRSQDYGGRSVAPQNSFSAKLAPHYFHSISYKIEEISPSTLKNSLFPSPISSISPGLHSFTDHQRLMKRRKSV

CCCNc1cc(N(C)OC)nc(NCCC)n1 (as salt: hydrogen sulfate) [CXXI, 2,6-Bis-(N-n-propylamino)-[1,3]pyrimidin-4-yl)-N,O-dimethyl-hydroxylamine hydrogen sulfate]
melting point: 123 to 126 °C

CCCNc1nc(NN(C)C)c2ccn(C)c2n1 [CLXX, N,N-Dimethyl-N′-(2-n-propylamino-7-methyl-pyrrolo[2,3d]pyrimidin-4-yl)-hydrazine]
IC50 (human KCNK9/TASK-3): > 30000 nM | IC50 (rat KCNK3/TASK-1): 160 nM | MV DMV ([1]; Table 8, 1 mpk, 15/65/20, pH 5): 89 | MV MPR ([1]; Table 8, 1 mpk, 15/65/20, pH 5): 167 | MV DMV [1, 7]: 83 | MV MPR [1, 7]: 175

CCCNc1nc(NC)nc(NCCC)n1 [CLXXII, N-(2,4-Bis-n-propylamino)-N-(6-methylamino)-[1,3,5]triazine]
respiratory rate, tidal volume and minute volume [2]: increased both respiratory rate and tidal volume, and their product minute volume | IC50 (human KCNK9/TASK-3): > 30000 nM | IC50 (rat KCNK3/TASK-1): 10 nM | MV MPR ([1]; 1 mpk IV, 15/65/20, pH 5): 145 | MV ΔMV ([1]; 1 mpk IV, 15/65/20, pH 5): 106

CCCNc1nc(O)nc(NCCC)n1 [CLXXVIII]
solubility in aqueous environments [3]: sparingly soluble | solubility in most organic solvents [3]: very low solubility

CCCNc1nc(N(C)OC)c2cc[nH]c2n1 [CXLII, N-(2-Propylamino-7H-pyrrolo[2,3d]pyrimidin-4-yl)-N,O-dimethyl-hydroxylamine hydrochloride]
effects of opioid on blood gases and pH (pH, SaO2, pO2, pCO2) [4]: reverse the effects of opioid on blood gases and pH | minute ventilation (MV), reversal of opioid-induced respiratory depression [5]: reverse opioid-induced respiratory depression

CCCNc1cc(N(C)OC)nc(NCCC)n1 [CXXI, 2,6-Bis-(N-n-propylamino)-[1,3]pyrimidin-4-yl)-N,O-dimethyl-hydroxylamine hydrogen sulfate]
IC50 (human KCNK9/TASK-3): > 30000 nM | IC50 (rat KCNK3/TASK-1): 220 nM | minute ventilation, dose dependence [6]: increase minute ventilation in a dose-dependent manner

CCCNc1nc(NCCC)nc(N(C)NC)n1.O=S(=O)(O)O [L, N-(4,6-Bis-n-propylamino-[1,3,5]triazin-2-yl)-N,N′-dimethyl-hydrazine hydrogen sulfate]
ED50 ([6]; Rattus norvegicus, cumulative IV doses 0.01-10 mg/kg, read-out: ED50, maximum peak minute ventilation): 0.13 mg/kg | minute ventilation, dose dependence [6]: increased minute ventilation in a dose-dependent manner | effects of opioid on blood gases and pH (pH, SaO2, pO2, pCO2) [4]: reverse the effects of opioid on blood gases and pH

CCCNc1nc(NCCC)nc(NOC)n1.Cl [XLII, N-(4,6-Bis-n-propylamino-[1,3,5]triazin-2-yl)-O-methyl-hydroxylamine hydrochloride]
respiratory rate, tidal volume and minute volume [2]: increased both respiratory rate and tidal volume, and their product minute volume | IC50 (human KCNK9/TASK-3): > 30000 nM | IC50 (rat KCNK3/TASK-1): 50 nM
